Literature values, collected in patent publication US20210275440A1, “MICROBEAD COMPOSITIONS AND METHODS FOR DELIVERING AN AGENT” (THE UNIVERSITY OF MEMPHIS RESEARCH FOUNDATION, priority 2016, published 2021).

Conditions: intra-articular administration

CN[C@H](CC(C)C)C(=O)N[C@H]1C(=O)N[C@@H](CC(N)=O)C(=O)N[C@H]2C(=O)N[C@H]3C(=O)N[C@H](C(=O)N[C@H](C(=O)O)c4cc(O)cc(O)c4-c4cc3ccc4O)[C@H](O)c3ccc(c(Cl)c3)Oc3cc2cc(c3O[C@@H]2O[C@H](CO)[C@@H](O)[C@H](O)[C@H]2O[C@H]2C[C@](C)(N)[C@H](O)[C@H](C)O2)Oc2ccc(cc2Cl)[C@H]1O (atropisomer, axis not shown) [vancomycin]
half-life: 3 h
time therapeutic levels in joint and serum were maintained: 24 h
